Reference: the NIST ThermoML archive (doi:10.1021/acs.jced.8b00958)

Assay: mn = molality of the nth substance listed, in mol/kg
Settings: 85 kPa, Liquid; for viscosity: Falling or rolling sphere viscometry; for speed of sound: Frequency=3 MHz, Single path-length method; for mass density: Vibrating tube method

O=C(CO)[C@@H](O)[C@H](O)[C@H](O)CO [D-fructose] + O
Settings | mass density [kg/m3] | speed of sound [m/s] | viscosity [mPa·s]
288.15 K, m1 = 0.0498 | 1002.61 | – | 1.163
288.15 K, m1 = 0.1521 | – | – | 1.224
288.15 K, m1 = 0.2488 | 1016.24 | 1484.3 | 1.274
288.15 K, m1 = 0.3494 | 1022.9 | 1491.6 | 1.335
288.15 K, m1 = 0.4476 | 1029.24 | 1498.6 | 1.394
288.15 K, m1 = 0.5483 | 1035.58 | – | 1.465
288.15 K, m1 = 0.6491 | 1041.8 | 1512.6 | 1.529
298.15 K, m1 = 0.0498 | 1000.49 | – | –
298.15 K, m1 = 0.1521 | – | 1506.7 | 0.964
298.15 K, m1 = 0.2488 | 1013.83 | 1513.1 | 0.993
298.15 K, m1 = 0.3494 | 1020.36 | 1519.4 | 1.038
298.15 K, m1 = 0.4476 | 1026.59 | 1525.6 | 1.08
298.15 K, m1 = 0.5483 | 1032.83 | 1532 | 1.133
298.15 K, m1 = 0.6491 | 1038.95 | 1538.4 | 1.178
308.15 K, m1 = 0.0498 | 997.41 | – | –
308.15 K, m1 = 0.1521 | 1004.25 | 1528.8 | 0.774
308.15 K, m1 = 0.2488 | – | 1534.4 | 0.804
308.15 K, m1 = 0.3494 | 1016.98 | 1540.3 | 0.836
308.15 K, m1 = 0.4476 | 1023.1 | 1546 | 0.87
308.15 K, m1 = 0.5483 | 1029.27 | 1551.3 | 0.909
308.15 K, m1 = 0.6491 | 1035.3 | 1556.9 | 0.941
318.15 K, m1 = 0.0498 | 993.54 | – | 0.624
318.15 K, m1 = 0.1521 | 1000.27 | – | 0.648
318.15 K, m1 = 0.2488 | – | 1549.8 | 0.67
318.15 K, m1 = 0.3494 | 1012.8 | 1555 | 0.699
318.15 K, m1 = 0.4476 | 1018.84 | 1559.9 | 0.718
318.15 K, m1 = 0.5483 | 1024.89 | 1565.3 | 0.747
318.15 K, m1 = 0.6491 | 1030.8 | 1570.3 | 0.777
